Columns and labels:
Type in all cases: cell-based, Chinese Hamster
aCD137 cells [1] = test: aCD137 fed-batch culture with antioxidant in basal and/or feed media (shaker flask, 7-liter, 500-liter)
Protocol: In another embodiment, the dhfr-negative Chinese Hamster Ovary (CHO) cell line DG44 (Invitrogen Corp. Carlsbad, CA) were transfected in order to establish a stable cell line expressing a human IgG4 antibody.
The transfected CHO DG44 cells expressing the antibody was grown in the presence of antioxidants according to the methods of the invention.
(§1) Cells were cultured either in 50 ml spin tubes with an initial volume of 25 ml and a shaking speed of 300 rpm; or 250 ml shake flasks with an initial volume of 80˜100 ml and a shaking speed of 150 rpm on an orbital shaker with 25 mm throw distance. Temperature for the culture was controlled at constant 37° C. from the beginning of the culture and was shifted to 34° C. when viable cell density reached 10^6 cells/ml (usually on day 6) and CO2 was controlled at 6%.
(§2) A standard fed-batch culture process involved culturing the cells for 14 days with feeding beginning on day 3 at a feeding volume of 3.64% of initial culture volume. All the media used for cultures were chemically defined. Chemically defined feed media M154A1B is an enriched version of feed media F3.2. While the ingredient lists are the same between the two feed media, the concentration of a few of the ingredients is increased. Likewise, chemically defined basal media M17IB is an enriched version of basal media B1. For cultures in 7-liter or 500-liter reactors, dissolved oxygen (DO) was maintained at 50% and pH was controlled between 6.8 and 7.4.
(§3) Viable cell density (VCD) and cell viability were measured off-line using a CEDEX® automated cell counter (Innovatis AG). Culture samples were also analyzed off-line using a BIOPROFILE® 400 Analyzer to monitor pH, pCO2, pO2, glucose, glutamine, glutamate, lactate, and ammonium (Nova Biomedical Corporation). A Protein A HPLC method was used to measure protein titer, which were reported as normalized values.

aCD137 cells [2] = test: Screen of antioxidants added to feed media in aCD137 fed-batch cell culture; settings: for VCD %: day 8 (peak VCD), basal media not supplemented; for VCD % / Titer %: normalized to control without antioxidant; for Titer %: final titer harvested day 14
Protocol: Following the cell culture process described in Example 1, thirteen novel antioxidants (Table 1) were added to the feed media utilized in aCD137 cell culture. Three antioxidant concentrations were evaluated: 1 mM (Run #1-13), 0.25 mM (Run #17-29), and 0.0625 mM (Run #33-45). The antioxidants were dissolved in either pure ethanol or dimethyl sulfoxide (DMSO) at 50 mM stock concentration and added to feed media M154A1B at the designed final concentrations. The corresponding solvent negative controls were run number 16, 32, and 48. Two traditional antioxidants, ascorbic acid (Run #14, 30, and 46) and reduced glutathione (Run #15, 31, and 47), served as positive controls. The basal media M171IB was not supplemented with antioxidant.
as §1, §2, §3

myostatin cells = test: Myostatin cell culture with antioxidant in basal and/or feed media (shake flask, 20-liter reactor)
Protocol: (§4) In another embodiment, the dhfr-negative Chinese Hamster Ovary (CHO) cell line DG44 (Invitrogen Corp. Carlsbad, CA) was transfected in order to establish a stable cell line expressing a recombinant human fusion protein.
(§5) The transfected CHO DG44 cells expressing the fusion protein was grown in the presence of antioxidants according to the methods of the invention.
as §1, §2, §3

aCD40L cells = test: aCD40L cell shake flask culture with catechin in feed media; settings: feed media 154A1 at 0.34 μM, 3.45 μM, 34.45 μM, 344.52 μM; basal media M17IB without catechin; shake flasks
Protocol: as §4, §5, §1
A standard fed-batch culture process involved culturing the cells for 14 days with feeding beginning on day 3 at a feeding volume of 3.64% of initial culture volume. All the media used for cultures were chemically defined. […]
as §3, with “A Protein A HPLC method was used to measure protein titer, which were reported as normalized values.” left out

[3] = basal media M17IB 0.07 mM and feed media M154A1B 1 mM, shaker flask fed-batch
[4] = 0.0625 mM in feed media M154A1B
[5] = feed at all three concentrations (0.0625-1 mM)
[6] = basal media B1 at 0.1 mM, feed media F3.2, 20-liter bioreactor
[7] = basal media M17IB at 0.1 mM, feed media M154A1B, 7-liter fed-batch
[8] = feed media F3.2 at 1 mM, basal media B1, shaker flask fed-batch
[9] = basal media B1 at 0.1 mM or feed media F3.2 at 1 mM or both, shake flask
[10] = basal media at 0.1 mM, 500-liter production run

Compound	protein titer (aCD137 cells [1]; [3])	viable cell density (aCD137 cells [1]; [3])	VCD % (aCD137 cells [2]; [4])	Titer % (aCD137 cells [2]; [4])	VCD % (aCD137 cells [2]; 0.25 mM in feed media M154A1B)	Titer % (aCD137 cells [2]; 0.25 mM in feed media M154A1B)	VCD % (aCD137 cells [2]; 1 mM in feed media M154A1B)	Titer % (aCD137 cells [2]; 1 mM in feed media M154A1B)	protein titer (aCD137 cells [2]; [5])	further results
Oc1ccc(C=Cc2cc(O)cc(O)c2)cc1 [Resveratrol, resveratrol]	increased	increased	102.53%	112.70%	92.24%	111.90%	107.48%	144.05%	increased protein titer	
O=c1c(O)c(-c2ccc(O)c(O)c2)oc2cc(O)cc(O)c12 [Quercetin, quercetin]	increased	increased			119.28%	111.90%	123.11%	128.97%		protein titer (aCD137 cells [2]; feed at 0.25 mM and 1 mM): increased protein titer
O=C(/C=C/c1ccc(O)c(O)c1)O[C@@H]1C[C@](O)(C(=O)O)C[C@@H](O)[C@H]1O [Chlorogenic acid, chlorogenic acid]	increased	increased	115.85%	110.71%	109.35%	109.92%	129.57%	151.59%	increased protein titer	
catechin	increased	increased	98.66%	111.90%	93.52%	112.70%	102.01%	116.67%	increased protein titer	protein titer (myostatin cells; [6]): effect on protein titer was maintained; viable cell density (myostatin cells; [6]): not changed; ammonium formation (aCD137 cells [1]; [7]): reduced; lactate formation (aCD137 cells [1]; [7]): reduced; protein titer (aCD137 cells [1]; [7]): increased; viable cell density (aCD137 cells [1]; [7]): increased; protein titer (aCD137 cells [1]; [8]): increased; viable cell density (aCD137 cells [1]; [8]): maintained; protein titer (aCD40L cells): corresponds to an increase in catechin concentration; viable cell density (aCD40L cells): corresponds to an increase in catechin concentration
Oc1ccc(-c2[o+]c3cc(O)cc(O)c3cc2O)cc1 [Pelargonidin, pelargonidin]							104.47%	118.25%		
COc1cc(C2Oc3cc([C@H]4Oc5cc(O)cc(O)c5C(=O)[C@@H]4O)ccc3OC2CO)ccc1O (stereo partly drawn) [Silibinin, silibinin]							99.11%	144.44%		
O=C(/C=C/c1ccc(O)c(O)c1)O[C@H](Cc1ccc(O)c(O)c1)C(=O)O [Rosmarinic acid, rosmarinic acid]	increased	increased	129.25%	132.14%	125.43%	146.83%	124.08%	180.16%	increased protein titer	ammonium formation (myostatin cells; [9]): reduced; protein titer (myostatin cells; [9]): increased; viable cell density (myostatin cells; [9]): increased; protein titer (myostatin cells; [6]): effect on protein titer was maintained; viable cell density (myostatin cells; [6]): not changed; ammonium formation (aCD137 cells [1]; [7]): reduced; lactate formation (aCD137 cells [1]; [7]): reduced; protein titer (aCD137 cells [1]; [7]): increased; viable cell density (aCD137 cells [1]; [7]): increased; lactate formation (aCD137 cells [1]; [10]): reduced; protein titer (aCD137 cells [1]; [10]): increased; viable cell density (aCD137 cells [1]; [10]): increased

Reference: patent publication US12410457B2, “Use of rosmarinic acid in cell bioproduction” (BRISTOL-MYERS SQUIBB COMPANY, priority 2015, dated 2025)
